The source of these data is US8835462B2, “Macrocyclic picolinamides as fungicides” (Dow AgroSciences LLC, priority 2012, dated 2014).

Like-named read-outs stand apart in the source and are kept apart here.

The melting point is the temperature, or range, at which the solid turns liquid.

In series [1] the test system is Mycosphaerella graminicola; Anamorph: Septoria tritici. In words: Leaf blotch of wheat (SEPTTR) fungicidal activity on wheat seedlings. It counts as in vivo. The conditions noted are these: Zymoseptoria tritici. On the procedure:
Evaluation of Fungicidal Activity: Leaf Blotch of Wheat (Mycosphaerella Graminicola; Anamorph: Septoria tritici; Bayer Code […]) Technical grades of materials were dissolved in acetone, which were then mixed with nine volumes of water containing 110 ppm Triton X-100. The fungicide solutions were applied onto wheat seedlings using an automated booth sprayer to run-off. All sprayed plants were allowed to air dry prior to further handling. Wheat plants (variety Yuma) were grown from seed in a greenhouse in 50% mineral soil/50% soil-less Metro mix until the first leaf was fully emerged, with 7-10 seedlings per pot. These plants were inoculated with an aqueous spore suspension of Septoria tritici either prior to or after fungicide treatments. After inoculation the plants were kept in 100% relative humidity (one day in a dark dew chamber followed by two to three days in a lighted dew chamber at 20° C.) to permit spores to germinate and infect the leaf. The plants were then transferred to a greenhouse set at 20° C. for disease to develop. When disease symptoms were fully expressed on the 1st leaves of untreated plants, infection levels were assessed on a scale of 0 to 100 percent disease severity. Percent disease control was calculated using the ratio of disease severity on treated plants relative to untreated plants.

The test system of series [2] is Puccinia triticina. In words: Wheat brown rust (PUCCRT) fungicidal activity on wheat seedlings. In kind it is in vivo. The protocol: Technical grades of materials were dissolved in acetone, which were then mixed with nine volumes of water containing 110 ppm Triton X-100. The fungicide solutions were applied onto wheat seedlings using an automated booth sprayer to run-off. All sprayed plants were allowed to air dry prior to further handling. Wheat plants (variety Yuma) were grown from seed in a greenhouse in 50% mineral soil/50% soil-less Metro mix until the first leaf was fully emerged, with 7-10 seedlings per pot. These plants were inoculated with an aqueous spore suspension of Septoria tritici either prior to or after fungicide treatments. After inoculation the plants were kept in 100% relative humidity (one day in a dark dew chamber followed by two to three days in a lighted dew chamber at 20° C.) to permit spores to germinate and infect the leaf. The plants were then transferred to a greenhouse set at 20° C. for disease to develop. When disease symptoms were fully expressed on the 1st leaves of untreated plants, infection levels were assessed on a scale of 0 to 100 percent disease severity. Percent disease control was calculated using the ratio of disease severity on treated plants relative to untreated plants. Evaluation of Fungicidal Activity: Wheat Brown Rust (Puccinia triticina; Synonym: Puccinia recondita f. sp. tritici; Bayer Code PUCCRT) Wheat plants (variety Yuma) were grown from seed in a greenhouse in 50% mineral soil/50% soil-less Metro mix until the first leaf was fully emerged, with 7-10 seedlings per pot. These plants were inoculated with an aqueous spore suspension of Puccinia triticina either prior to or after fungicide treatments. After inoculation the plants were kept in a dark dew room at 22° C. with 100% relative humidity overnight to permit spores to germinate and infect the leaf. The plants were then transferred to a greenhouse set at 24° C. for disease to develop. Fungicide formulation, application and disease assessment followed the procedures as described in the Example A.

The test system of series [3] is Puccinia triticina. In words: Fungicide mobility (dropline mobility test), wheat brown rust (PUCCRT). In kind it is in vivo. The conditions noted are these: 1 ug/leaf, disease-free zone as percent of distance from marked line to leaf tip; for Dropline Mobility Test PUCCRT 1 DPM: 1 Day Protectant Mobility; for Dropline Mobility Test PUCCRT 3 DCM: 3 Day Curative Mobility. The protocol: Evaluation of Fungicide Mobility: Wheat Brown Rust (Puccinia Triticina; Synonym: Puccinia recondita f. sp. Tritici; Bayer Code PUCCRT):
“Yuma” wheat seedlings were used in the test. One mg of compound was dissolved in 9 μl of EC blank (emulsifiable concentrate) and 500 μl of acetone. Acetone was then evaporated overnight by leaving the vial open in a fume hood. Two milliliters of water containing 110 ppm Triton X-100 was added to each vial to prepare application solutions. A […] drop of formulated material was applied to a marked line on the adaxial surface 5 cm from the leaf tip of the primary leaves. The primary leaves were kept in a horizontal position. Each treatment had 6 replicates. Plants were inoculated with PUCCRT 1-day after (1DPM) or 3-day prior to (3DCM) compound applications. When rust was fully expressed on primary leaves on control plants, the zone of treated leaves that was disease-free in the acropetal direction was measured with a ruler and converted to percent of the distance from marked line to leaf tip.

Where [4] appears, read: 24 h, 1 Day Protectant, read-out: Disease Control SEPTTR 1 DP.
[5] abbreviates: 72 h, 3 Day Curative, read-out: Disease Control SEPTTR 3 DC.
Setting [6] is: 24 h, 1 Day Protectant, read-out: Disease Control PUCCRT 1 DP.
Where [7] appears, read: 72 h, 3 Day Curative, read-out: Disease Control PUCCRT 3 DC.

Regarding `COc1ccnc(C(=O)N[C@H]2COC[C@H](Cc3ccccc3)[C@@H](OC(=O)C(C)C)[C@H](C)OC2=O)c1O` [Compound 1], the melting point is 66 to 70 °C. In series [1] (setting [4]), the pest or weed control at 100 ppm lay in the range of 80 to 100%. In addition, the pest or weed control at 100 ppm in series [1] (setting [5]) was 80 to 100%. Moreover, the pest or weed control at 100 ppm with Puccinia triticina [2] (setting [6]) lay within 80 to 100%. The pest or weed control at 100 ppm in the series on Puccinia triticina [2] (setting [7]) was 80 to 100%. In the series with Puccinia triticina [3], the “Dropline Mobility Test PUCCRT 1 DPM” value was “B (More than 0-Less than 80)” and the “Dropline Mobility Test PUCCRT 3 DCM” value is recorded as “B (More than 0-Less than 80)”.
Turning to `COc1ccnc(C(=O)N[C@H]2COC[C@H](CC3CCCCC3)[C@@H](OCC(C)C)[C@H](C)OC2=O)c1O` [Compound 4, N-((3S,7S,8R,9S)-7-(cyclohexylmethyl)-8-isobutoxy-9-methyl-2-oxo-1,5-dioxonan-3-yl)-3-hydroxy-4-methoxypicolinamide], the melting point fell in the range of 89 to 92 °C. Moreover, the pest or weed control at 100 ppm in series [1] (setting [4]) lay in the range of 80 to 100%. Moreover, the pest or weed control at 100 ppm in series [1] (setting [5]) was 80 to 100%. Also, the pest or weed control at 100 ppm in the series with Puccinia triticina [2] (setting [6]) is 80 to 100%. Further, the pest or weed control at 100 ppm in the series on Puccinia triticina [2] (setting [7]) fell in the range of 80 to 100%.
Compound `C=C(C)CO[C@@H]1[C@@H](Cc2ccccc2)COC[C@H](NC(=O)c2nccc(OC)c2O)C(=O)O[C@H]1C` [Compound 6] displayed a melting point of 96 to 104 °C. Besides, the pest or weed control at 100 ppm in series [1] (setting [4]) lay in the range of 80 to 100%. The pest or weed control at 100 ppm in series [1] (setting [5]) was 0 to 80%. For the same compound, the pest or weed control at 100 ppm in the series with Puccinia triticina [2] (setting [6]) was 80 to 100%. In addition, the pest or weed control at 100 ppm in the series with Puccinia triticina [2] (setting [7]) was 80 to 100%.
Take `COc1ccnc(C(=O)N[C@H]2COC[C@H](Cc3ccccc3)[C@@H](OCCC(C)C)[C@H](C)OC2=O)c1OCOC(C)=O` [Compound 42]: the pest or weed control at 100 ppm (in series [1] (setting [4]); in series [1] (setting [5]); with Puccinia triticina [2] (setting [6]); in the series on Puccinia triticina [2] (setting [7])) was 80 to 100% each time. Further, the “Dropline Mobility Test PUCCRT 1 DPM” value in the series with Puccinia triticina [3] is given as “B (More than 0-Less than 80)”. Besides, the “Dropline Mobility Test PUCCRT 3 DCM” value in the series with Puccinia triticina [3] is on record as “B (More than 0-Less than 80)”.
For the compound `COc1ccnc(C(=O)N[C@H]2COC[C@H](Cc3ccccc3)[C@@H](OCC(F)F)[C@H](C)OC2=O)c1O` [Compound 43], the pest or weed control at 100 ppm (in series [1] (setting [4]); in series [1] (setting [5]); in the series with Puccinia triticina [2] (setting [6]); with Puccinia triticina [2] (setting [7])) was 80 to 100% in each case. In addition, in the series with Puccinia triticina [3], the “Dropline Mobility Test PUCCRT 1 DPM” value is “A (80-100)”. In the series with Puccinia triticina [3], the “Dropline Mobility Test PUCCRT 3 DCM” value is reported as “B (More than 0-Less than 80)”.
On to `COc1ccnc(C(=O)N[C@H]2COC[C@H](Cc3ccccc3)[C@@H](OCCC(C)OC)[C@H](C)OC2=O)c1O` (some centres unmarked) [Compound 45], for which the pest or weed control at 100 ppm (in series [1] (setting [4]); in series [1] (setting [5]); with Puccinia triticina [2] (setting [6]); with Puccinia triticina [2] (setting [7])) was 80 to 100% in each case. In addition, the “Dropline Mobility Test PUCCRT 1 DPM” value in the series on Puccinia triticina [3] is “A (80-100)”. Further, the “Dropline Mobility Test PUCCRT 3 DCM” value in the series with Puccinia triticina [3] is reported as “A (80-100)”.
In turn, `C[C@@H]1OC(=O)[C@@H](NC(=O)OC(C)(C)C)COC[C@H](Cc2ccccc2)[C@H]1O` [Compound 48, tert-Butyl-(3S,7S,8R,9S)-7-benzyl-8-hydroxy-9-methyl-2-oxo-1,5-dioxonan-3-ylcarbamate] gave a melting point of 62 to 67 °C.
As for `COC(=O)/C=C/O[C@@H]1[C@@H](Cc2ccccc2)COC[C@H](NC(=O)OC(C)(C)C)C(=O)O[C@H]1C` [Compound 49, (E)-methyl 3-(((3S,6S,7R,8S)-8-benzyl-3-((tert-butoxycarbonyl)amino)-6-methyl-4-oxo-1,5-dioxonan-7-yl)oxy)acrylate], the melting point lay in the range of 128 to 129 °C.
Regarding `C[C@@H]1OC(=O)[C@@H](NC(=O)OC(C)(C)C)COC[C@H](Cc2ccccc2)[C@H]1O/C=C/C(=O)OCc1ccccc1` [Compound 51, (E)-benzyl 3-(((3S,6S,7R,8S)-8-benzyl-3-((tert-butoxycarbonyl)amino)-6-methyl-4-oxo-1,5-dioxonan-7-yl)oxy)acrylate], the melting point lay within 182 to 185 °C.
`C[C@@H]1OC(=O)[C@@H](NC(=O)OC(C)(C)C)COC[C@H](Cc2ccccc2)[C@H]1OCCC(=O)N(C)C` [Compound 53, tert-butyl ((3S,7S,8R,9S)-7-benzyl-8-(3-(dimethylamino)-3-oxopropoxy)-9-methyl-2-oxo-1,5-dioxonan-3-yl)carbamate] had a melting point of 142 to 143 °C.
Still for that read-out and setting: the value for `C[C@@H]1OC(=O)[C@@H](N(C(=O)OC(C)(C)C)C(=O)OC(C)(C)C)COC[C@H](Cc2ccccc2)[C@H]1O` [Compound 57, tert-butyl N-[(3S,7S,8R,9S)-7-benzyl-8-hydroxy-9-methyl-2-oxo-1,5-dioxonan-3-yl]-N-tert-butoxycarbonylcarbamate] was 139 to 141 °C; that for `C[C@@H]1OC(=O)[C@@H](NC(=O)OC(C)(C)C)COC[C@H](Cc2ccccc2)[C@H]1OC(=O)c1ccccc1` [Compound 61] was 54 to 63 °C.
Same read-out and setting: the figure for `C[C@@H]1OC(=O)[C@@H](NC(=O)OC(C)(C)C)COC[C@H](Cc2ccccc2)[C@H]1OC(=O)C1CC1` [Compound 62] is 72 to 85 °C.
`C=CCO[C@@H]1[C@@H](Cc2ccccc2)COC[C@H](N(C(=O)OC(C)(C)C)C(=O)OC(C)(C)C)C(=O)O[C@H]1C` [Compound 65] displayed a melting point of 88 to 90 °C.
Regarding `C[C@@H]1OC(=O)[C@@H](N(C(=O)OC(C)(C)C)C(=O)OC(C)(C)C)COC[C@H](Cc2ccccc2)[C@H]1OC/C=C/C(F)(F)F` [Compound 66], the melting point lay within 131 to 133 °C.
The compound `C/C=C/C(C)O[C@@H]1[C@@H](Cc2ccccc2)COC[C@H](N(C(=O)OC(C)(C)C)C(=O)OC(C)(C)C)C(=O)O[C@H]1C` (some centres unmarked) [Compound 67] had a melting point of 80 to 83 °C.
In turn, `CCCO[C@@H]1[C@@H](Cc2ccccc2)COC[C@H](N(C(=O)OC(C)(C)C)C(=O)OC(C)(C)C)C(=O)O[C@H]1C` [Compound 68] showed a melting point of 98 to 100 °C.
For `C[C@@H]1OC(=O)[C@@H](N(C(=O)OC(C)(C)C)C(=O)OC(C)(C)C)COC[C@H](Cc2ccccc2)[C@H]1OCCCC(F)(F)F` [Compound 69], the melting point lay in the range of 100 to 102 °C.
Regarding `CC/C=C/CO[C@@H]1[C@@H](Cc2ccccc2)COC[C@H](N(C(=O)OC(C)(C)C)C(=O)OC(C)(C)C)C(=O)O[C@H]1C` [Compound 71], the melting point was 127 to 129 °C.
Consider `CCCCCO[C@@H]1[C@@H](Cc2ccccc2)COC[C@H](N(C(=O)OC(C)(C)C)C(=O)OC(C)(C)C)C(=O)O[C@H]1C` [Compound 72], for which the melting point lay in the range of 94 to 97 °C.
Compound `C=C(C)CO[C@@H]1[C@@H](Cc2ccccc2)COC[C@H](N(C(=O)OC(C)(C)C)C(=O)OC(C)(C)C)C(=O)O[C@H]1C` [Compound 82, tert-butyl N-[(3S,7S,8R,9S)-7-benzyl-9-methyl-8-(2-methylallyloxy)-2-oxo-1,5-dioxonan-3-yl]-N-tert-butoxycarbonylcarbamate] gave a melting point of 109 to 110 °C.
